Results taken from US5231100A, “Antineoplastic modified imidazoacridines” (British Technology Group Limited, priority 1991, dated 1993).
pIC50: −log10 of the molar value. Like-named read-outs stand apart in the source and are kept apart here.

Key:
[1] = tested on: mouse L1210 leukemia cells; assay: In vitro cytotoxicity, 48 h growth inhibition (cell protein content); format: cell-based; conditions: for pIC50: read-out: in vitro IC50
Protocol: The mouse L1210 leukemia cells (RPM1, USA) are grown in RPM1 1640 medium supplemented with 5% fetal calf serum and penicillin (1,000,000 units litre) plus streptomycin (100 mg/litre) in controlled air-5% CO2 humidified atmosphere at 37° C. L1210 mouse leukemia cells are seeded at a density of 5.10^4 cells/ml. The tested compounds after being dissolved in 50% ethanol are added, at four different concentrations, to the cell suspensions. […] 1974, 24, 1971.

P388 lymphotic leukemia = assay: In vivo antileukemic evaluation, P388 leukemia in BDF1 mice
Protocol: BDF1 mice are injected ip with 10^6 P388 lymphotic leukemia cells on day O and treated ip on days 1-5 in accordance with the protocols described by the National Cancer Institute: Geran, R. I.; Greenberg, R. H.; MacDonald, M. M.; Schumacher, A. M.; Abbot, B. J. Cancer Chemother, Re., Part 3, 1972,3,1. The mean survival time (MST) for each treatment group (eight mice) is calculated and the percent of T/C was determined by using the following formula: % T/C=(MST treated)/(MST control) 100.

[2] = L1210 cells, 48 h, 50% growth inhibition
[3] = L1210 cells, 48 h, 50% growth inhibition, read-out: in vitro IC50 (μg/ml)
[4] = P388 ip, treated ip days 1-5, at opt dose, first or only value
[5] = P388 ip, treated ip days 1-5, at opt dose, repeated independent multidose assay (footnote c)

Row | SMILES | pIC50 [1, 2] | IC50 [1, 3] [µg/mL] | % T/C (mean survival time treated/control) (P388 lymphotic leukemia; [4]) [%] | % T/C (mean survival time treated/control), second value (P388 lymphotic leukemia; [5]) [%] | IC50 ([1]; L1210, 48 h, read-out: in vitro IC50 (μM)) [µM] | IC50 ([1]; L1210, 48 h, read-out: in vitro IC50 (μg/ml)) [µg/mL] | % T/C (mean survival time treated/control) (P388 lymphotic leukemia; ip) [%] | % T/C (mean survival time treated/control), second value (P388 lymphotic leukemia; ip) [%]
1 | CCN(CC)CCNc1ccc2ncn3c4ccc(OC)cc4c(=O)c1c23.Cl.Cl [Example 1, 5-[[2-(Diethylamino)ethyl]amino]-8-methoxyimidazo[4,5,1-de] acridin-6-one Dihydrochloride] | 5.74 | 0.78 | 183 | 209 |  |  |  | 
2 | COc1ccc2c(c1)c(=O)c1c(NCCN(C)C)ccc3ncn2c31 [Example 2] |  |  | 177 | 136 | 1.6 | 0.65 |  | 
3 | COc1ccc2c(c1)c(=O)c1c(NCCN(C)C)ccc3nc(C)n2c31 [Example 3] | 6.11 | 0.34 | 127 |  |  |  |  | 
4 | CCN(CC)CCNc1ccc2nc(C)n3c4ccc(OC)cc4c(=O)c1c23 [Example 4] | 5.81 | 0.7 | 136 | 120 |  |  |  | 
5 | COc1ccc2c(c1)c(=O)c1c(NCCCN(C)C)ccc3ncn2c31 [Example 5] | 5.08 | 3.5 | 164 |  |  |  |  | 
6 | COc1ccc2c(c1)c(=O)c1c(NCCCN(C)C)ccc3nc(C)n2c31 [Example 6] | 5.49 | 1.4 | 136 |  |  |  |  | 
7 | CCN(CC)CCCNc1ccc2ncn3c4ccc(OC)cc4c(=O)c1c23 [Example 7] | 5.60 | 1.1 | 142 |  |  |  |  | 
8 | CCN(CC)CCCNc1ccc2nc(C)n3c4ccc(OC)cc4c(=O)c1c23 [Example 8] | 5.85 | 0.7 | 108 |  |  |  |  | 
9 | CN(C)CCNc1ccc2ncn3c4ccc(O)cc4c(=O)c1c23 [Example 9] | 7.32 | 0.02 | 210 | 210 |  |  |  | 
10 | Cc1nc2ccc(NCCN(C)C)c3c(=O)c4cc(O)ccc4n1c23 [Example 10] | 6.87 | 0.06 | 200 | 250 |  |  |  | 
11 | CCN(CC)CCNc1ccc2ncn3c4ccc(O)cc4c(=O)c1c23 [Example 11] | 7.51 | 0.013 |  |  |  |  | 211 | 175
12 | CCN(CC)CCNc1ccc2nc(C)n3c4ccc(O)cc4c(=O)c1c23 [Example 12] | 6.60 | 0.11 | 280 | 290 |  |  |  | 
13 | CN(C)CCCNc1ccc2ncn3c4ccc(O)cc4c(=O)c1c23 [Example 13] | 7.47 | 0.014 | 183 |  |  |  |  | 
14 | Cc1nc2ccc(NCCCN(C)C)c3c(=O)c4cc(O)ccc4n1c23 [Example 14] | 6.64 | 0.1 | 255 |  |  |  |  | 
15 | CCN(CC)CCCNc1ccc2ncn3c4ccc(O)cc4c(=O)c1c23 [Example 15] | 6.74 | 0.08 | 309 | 230 |  |  |  | 
16 | CCN(CC)CCCNc1ccc2nc(C)n3c4ccc(O)cc4c(=O)c1c23 [Example 16] | 6.05 | 0.4 | 150 | 155 |  |  |  | 
